This is an account of results in US5935960A, “Pro-drugs of 5-(2-(4-(1,2-benzisothiazol-3-yl)-1-piperazinyl)ethyl)-6-chloro-1,3-dihy dro-2H-indol-2-one” (Pfizer Inc., priority 1997, dated 1999).

Each structure is given as a SMILES string. Structures can show the parent of a compound that is named as a salt. Where two headings read alike, the source gives them in different places.

Series [1] has as its target T1, 5HT-2A receptor (Rattus norvegicus, UniProt P14842).
T1 construct: rat frontal; from tissue; host or cells: rat frontal cortex
Put plainly: 5HT-2A radioligand binding (3H-ketanserin, rat frontal cortex). As to conditions: 3H-ketanserin 0.4 nM, pH 7.7, read-out: Radioligand Binding Results, 5HT2 (IC50). The text has this: (§1) The compound of formula I is therefore useful in the treatment or prevention of psychotic disorders, such as schizophrenia. […] Specifically, the standard methods for determining neuroleptic activity are based on Dopamine D-2, Dopamine D-3, Dopamine D4, 5-hydroxytryptamine-1A (5-HT-1A), 5-hydroxytryptamine-2C (5-HT-2C), and 5-hydroxytryptamine-2A (5-HT-2A) receptor binding studies. Tissues or membranes used to perform these studies are derived from rat, pig, or from cell lines expressing human receptor subtypes. LTK-cells expressing the human D2Long receptor were obtained from Dr. Olivier Civelli, Oregon Health Sciences University, Portland, Oreg. Chinese hamster ovary cells (CHO) expressing the human D3 receptor were obtained from Dr. J. C. […]
(§2) The following protocol describes one possible method for determining activity for the compound of formula I. Specific assay conditions for each receptor is described in Table 1, below. […] Non-specific binding is determined by radioligand binding in the presence of a saturating excess of a known competitor for the receptor of interest (as listed in Table 1). […] Membrane-bound ligand is determined by liquid scintillation counting of the filters in Ready-Safe scintillation cocktail (for tritiated ligands), or by direct counting in a gamma counter (for [^125 .vertline.] ligands). […]

Series [2] addresses T2, 5HT-1A receptor (Rattus norvegicus, UniProt P19327).
T2 construct: rat cortex; from tissue; host or cells: rat cortex
T2 sequence (P19327 1-422): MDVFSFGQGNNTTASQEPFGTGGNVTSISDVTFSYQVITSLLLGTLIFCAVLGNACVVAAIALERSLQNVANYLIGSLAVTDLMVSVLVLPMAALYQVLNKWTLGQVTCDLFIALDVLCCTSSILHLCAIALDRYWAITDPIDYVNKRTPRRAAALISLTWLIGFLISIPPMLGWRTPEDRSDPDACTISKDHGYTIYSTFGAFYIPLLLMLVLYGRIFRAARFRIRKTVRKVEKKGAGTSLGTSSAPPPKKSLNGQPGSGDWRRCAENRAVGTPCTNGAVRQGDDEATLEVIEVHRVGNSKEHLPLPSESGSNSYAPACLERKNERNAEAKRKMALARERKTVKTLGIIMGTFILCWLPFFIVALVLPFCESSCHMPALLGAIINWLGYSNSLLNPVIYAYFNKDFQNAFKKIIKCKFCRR
Put plainly: 5HT-1A radioligand binding (3H-8OH-DPAT, rat cortex). As to conditions: 3H-8OH-DPAT 1.5 nM, pH 7.7, read-out: Radioligand Binding Results, 5HT1A (IC50).
Text: as §1, §2

In series [3] the target is T3, Dopamine D-4 receptor (Homo sapiens, UniProt P21917).
T3 construct: expressed in transfected cells; host or cells: COS-7 cells
T3 sequence (P21917 1-419): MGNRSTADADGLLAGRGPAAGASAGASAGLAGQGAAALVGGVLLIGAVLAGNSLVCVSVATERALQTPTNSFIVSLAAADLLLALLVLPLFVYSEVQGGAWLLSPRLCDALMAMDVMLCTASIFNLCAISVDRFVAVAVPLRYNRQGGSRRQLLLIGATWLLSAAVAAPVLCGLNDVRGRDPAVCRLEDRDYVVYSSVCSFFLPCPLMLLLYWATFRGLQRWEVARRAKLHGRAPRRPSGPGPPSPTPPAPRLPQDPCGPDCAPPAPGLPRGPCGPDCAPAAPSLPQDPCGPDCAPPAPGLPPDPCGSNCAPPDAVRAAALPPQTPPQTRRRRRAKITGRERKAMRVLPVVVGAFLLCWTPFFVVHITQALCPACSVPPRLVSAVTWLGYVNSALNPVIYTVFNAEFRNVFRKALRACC
Put plainly: Dopamine D-4 radioligand binding (3H-spiroperidol, human D4-transfected COS-7 cells). As to conditions: 3H-spiroperidol 0.1 nM, pH 7.4, read-out: Radioligand Binding Results, D4 (apparent Ki).
Text: as §1, §2

Series [4] deals with T4, Dopamine D-3 receptor (Homo sapiens, UniProt P35462).
T4 construct: expressed in transfected cells; host or cells: CHO cells (from Dr. J. C. Schwartz, INSERM, Paris)
T4 sequence (P35462 whole entry): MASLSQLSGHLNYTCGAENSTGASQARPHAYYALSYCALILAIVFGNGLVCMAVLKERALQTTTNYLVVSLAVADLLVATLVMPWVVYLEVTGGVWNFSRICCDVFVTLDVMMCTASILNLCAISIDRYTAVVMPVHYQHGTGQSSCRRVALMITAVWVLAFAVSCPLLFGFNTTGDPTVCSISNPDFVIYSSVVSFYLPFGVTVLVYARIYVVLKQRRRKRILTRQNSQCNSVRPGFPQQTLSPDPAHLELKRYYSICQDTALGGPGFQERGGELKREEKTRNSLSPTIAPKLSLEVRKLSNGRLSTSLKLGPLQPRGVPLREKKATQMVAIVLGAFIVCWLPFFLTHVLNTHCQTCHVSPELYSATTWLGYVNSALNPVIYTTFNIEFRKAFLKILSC
Put plainly: Dopamine D-3 radioligand binding (3H-spiroperidol, human D3-transfected CHO cells). As to conditions: 3H-spiroperidol 0.1 nM, pH 7.4, read-out: Radioligand Binding Results, D3 (apparent Ki).
Text: as §1, §2

The nature of series [5]: titration with 0.2032 Molar sodium hydroxide (pKa). Type of series: physicochemical. As to conditions: dihydrochloride titrated with 0.2032 M NaOH. The protocol: The compound (5.0 g, 12.1 mmol) from Example 1 was suspended in 75 mL of THF at room temperature, and then 1.97 mL of concentrated hydrochloric acid was slowly added over 30 min affording a gummy solid. Water (5 mL) was added and the gummy solids were stirred for 6 hours to produce a finely divided solid which was granulated overnight. The mixture was filtered and the filter cake was washed with THF (10 mL). The product was dried in vacuo at 25° C. overnight under a nitrogen bleed to give 5.87 g of the title dihydrochloride compound as a tan solid (mp=232-240° C. with decomposition).

A short description of series [6]: aqueous solubility. It counts as physicochemical. As to conditions: dihydrochloride salt, at about 25° C.

T1 sequence (P14842 whole entry): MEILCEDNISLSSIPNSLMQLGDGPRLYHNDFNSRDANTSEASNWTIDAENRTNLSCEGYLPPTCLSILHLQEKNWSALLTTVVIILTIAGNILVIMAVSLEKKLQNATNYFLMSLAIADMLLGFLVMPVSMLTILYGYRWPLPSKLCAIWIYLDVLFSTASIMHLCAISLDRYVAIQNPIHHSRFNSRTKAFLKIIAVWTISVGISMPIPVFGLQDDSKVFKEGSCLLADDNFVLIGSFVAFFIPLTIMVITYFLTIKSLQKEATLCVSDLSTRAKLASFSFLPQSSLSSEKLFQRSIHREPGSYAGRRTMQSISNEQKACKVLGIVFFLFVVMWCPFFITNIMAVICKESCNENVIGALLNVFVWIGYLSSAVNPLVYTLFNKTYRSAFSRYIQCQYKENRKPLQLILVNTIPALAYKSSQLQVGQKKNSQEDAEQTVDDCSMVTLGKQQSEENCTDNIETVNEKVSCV

As a reminder, the IC50 is the concentration that inhibits the measured activity by half. For `N=C(c1ccccc1S)N1CCN(CCc2cc3c(cc2Cl)NC(=O)C3)CC1` [Example 1, 1-[2-(6-chloro-2,3-dihydro-2-oxo-1H-indol-5-yl)ethyl]-4-[imino(2-mercaptophenyl)methyl]piperazine], the IC50 in series [1] is 0.35 nM; in series [2], 12 nM. In addition, the Ki in series [3] is 59.2 nM; in series [4], 5.8 nM.
By pKa is commonly meant the negative logarithm of the acid dissociation constant. Broadly, the solubility is the dissolved amount per volume that the medium holds. `N=C(c1ccccc1S)N1CCN(CCc2cc3c(cc2Cl)NC(=O)C3)CC1` [Example 2, 1-[2-(6-Chloro-2.3-dihydro-2-oxo-1H-indol-5-yl)ethyl]-4-[(imino(2-mercaptophenyl)methyl]piperazinedihydrochloride]: the pKa in series [5] (first equivalence point pH 4.33, read-out: pKa (first)) is 3.1; in series [5] (second equivalence point pH 8.22, read-out: pKa (second)), 5.5. The “aqueous solubility relative to ziprasidone hydrochloride (times higher)” value in series [6] is “approximately 300 times”. The solubility in series [6] (water) is approximately 25 mg/mL.
